We go through 40 compounds from patent US20110195929A1, “COMPOUNDS FOR THE TREATMENT OF FLAVIVIRAL INFECTIONS” (SUMMIT CORPORATION PLC, priority 2008, published 2011).

Structures are written as SMILES.

The test system of the first assay is HCV. The assay is described as follows: Cell-based HCV infection NS3 protease FRET assay in DMSO-Huh7 cells. Also: test concentration or dose not given here. Details: species or system hepatitis C virus (HCV).
Details: not given
Take `C[C@@H]1CC[C@@H]2[C@@H](O)[C@H](O)[C@@H](CO)N12` [Compound 14, (1R,2R,3R,5R,7aR)-3-(hydroxymethyl)-5-methylhexahydro-1H-pyrrolizine-1,2-diol]: the Ave % inhibition entry is recorded as “+ (+: ≦19%)”.
On the same count and under the same terms, then `[O-][N@@+]12C[C@H](O)[C@H](O)[C@@H]1[C@@H](O)[C@H](O)[C@@H]2CO` [Compound 81, (1R,2R,3S,4R,6S,7R,7aR)-1,2,6,7-tetrahydroxy-3-(hydroxymethyl)octahydropyrrolizine 4-oxide], with “++ (++: 20-39%)”.
On to `C[C@H]1C[C@@H](O)[C@@H]2[C@H](O)[C@H](O)[C@@H](CO)N21` [Compound 149, (1S,2R,3R,5S,7R,7aR)-3-(hydroxymethyl)-5-methylhexahydro-1H-pyrrolizine-1,2,7-triol], for which the Ave % inhibition result is reported as “++ (++: 20-39%)”.
The same measure, in the same setting: the same measure for `OC[C@@H](O)[C@@H]1NC[C@H](O)[C@@H]1O` [Compound 155, (2S,3R,4S)-2-((S)-1,2-dihydroxyethyl)pyrrolidine-3,4-diol]: “++ (++: 20-39%)”.
Same read-out and setting: the same measure for `O=C(O)[C@H]1C[C@H](O)CN1` [Compound 477, trans-4-Hydroxy-D-proline]: “+ (+: ≦19%)”; for `CCCCCCCCCN1C[C@H](O)[C@@H](O)[C@H](O)[C@H]1CO` [Compound 550, (2R,3R,4R,5S)-2-(hydroxymethyl)-1-nonylpiperidine-3,4,5-triol]: “++ (++: 20-39%)”.

The same assay, now with this note: DMSO-Huh7 cells infected with HCV at 0.05 ffu/cell; HCV NS3 protein levels by FRET, day 6 p.i.
For `OC[C@H]1N[C@H](CO)[C@@H](O)[C@H](O)[C@H]1O` [Compound 15, (2R,3S,4R,5R,6R)-2,6-bis(hydroxymethyl)piperidine-3,4,5-triol], the Ave % inhibition result is given as “++ (++: 20-39%)”.
Same read-out and setting: the same measure for `CCCC(=O)O[C@H]1CN2CC[C@H](O)C2[C@@H](O)[C@@H]1O` (stereo partly drawn) [Compound 46, (1S,6S,7S,8R)-1,7,8-trihydroxyoctahydroindolizin-6-yl butyrate]: “++ (++: 20-39%)”; for `CC[C@@H]1NC[C@@H](O)[C@H](O)[C@H]1O` [Compound 72, (2S,3S,4S,5R)-2-ethylpiperidine-3,4,5-triol]: “++ (++: 20-39%)”; for `O=C(O)[C@@]1(O)CNC[C@@H](O)[C@H]1O` [Compound 87, (3R,4R,5R)-3,4,5-trihydroxypiperidine-3-carboxylic acid]: “+++ (+++: 40-59%)”.
Turning to `CCCCN1C[C@H](O)[C@@H](O)[C@H](O)[C@H]1CO` [Compound 118, (2R,3R,4R,5S)-1-butyl-2-(hydroxymethyl)piperidine-3,4,5-triol], the Ave % inhibition result was “++ (++: 20-39%)”.
Consider `C[C@H]1N[C@@H](CO)[C@H](O)[C@H]1O` [Compound 119, (2S,3S,4S,5R)-2-(hydroxymethyl)-5-methylpyrrolidine-3,4-diol], for which the Ave % inhibition result is given as “++ (++: 20-39%)”.
The same measure, in the same setting: then `CCCC(=O)OC[C@@H]1[C@@H](OC(=O)CCC)[C@H](OC(=O)CCC)[C@H]2[C@H](OC(=O)CCC)[C@@H](OC(=O)CCC)CN21` [Compound 132, (1R,2R,3R,6S,7S,7aR)-3-(butyryloxymethyl)hexahydro-1H-pyrrolizine-1,2,6,7-tetrayl tetrabutyrate], with “++ (++: 20-39%)”.
The same measure, in the same setting: the same measure for `CC(=O)OC[C@H]1[C@@H](OC(C)=O)[C@H](OC(C)=O)[C@H]2[C@H](OC(C)=O)[C@@H](OC(C)=O)CN21` [Compound 136, (1R,2R,3S,6S,7S,7aR)-3-(acetoxymethyl)hexahydro-1H-pyrrolizine-1,2,6,7-tetrayl tetraacetate]: “++ (++: 20-39%)”; for `CC(=O)OC[C@H]1[C@@H](OC(C)=O)[C@H](OC(C)=O)[C@H]2[C@@H](OC(C)=O)[C@@H](OC(C)=O)CN21` [Compound 144, (1R,2R,3S,6S,7R,7aR)-3-(acetoxymethyl)hexahydro-1H-pyrrolizine-1,2,6,7-tetrayl tetraacetate]: “++ (++: 20-39%)”.
Same read-out and setting: the same measure for `OCCN1C[C@@H](O)[C@@H](O)[C@H]1[C@H](O)CO` [Compound 145, (2R,3S,4R)-2-((S)-1,2-dihydroxyethyl)-1-(2-hydroxyethyl)pyrrolidine-3,4-diol]: “+++ (+++: 40-59%)”; for `O[C@@H]1[C@@H]2[C@@H](O)CCCN2C[C@@H]1O` [Compound 153, (1R,2S,8S,8aS)-octahydroindolizine-1,2,8-triol]: “++ (++: 20-39%)”; for `CCCCN1C[C@H](O)[C@H](O)[C@@H]1CO` [Compound 162, (2S,3R,4S)-1-butyl-2-(hydroxymethyl)pyrrolidine-3,4-diol]: “++ (++: 20-39%)”.
On to `CCCCN1C[C@@H](N=[N+]=[N-])C[C@H]1CO` [Compound 275, ((2S,4S)-4-azido-1-butylpyrrolidin-2-yl)methanol], for which the Ave % inhibition result is on record as “++ (++: 20-39%)”.
Still for that read-out and setting: the same measure for `CCCCCCCCCN1C[C@@H](O)[C@@H](O)[C@@H]1[C@@H](O)CO` [Compound 316, (2S,3S,4R)-2-((R)-1,2-dihydroxyethyl)-1-nonylpyrrolidine-3,4-diol]: “+++ (+++: 40-59%)”.
Still for that read-out and setting: the same measure for `CCCCCCCCCN1C[C@H](NC(C)=O)[C@@H](O)[C@@H]1CO` [Compound 338, N-((3S,4R,5S)-4-hydroxy-5-(hydroxymethyl)-1-nonylpyrrolidin-3-yl)acetamide]: “++ (++: 20-39%)”.
Turning to `CCCCCCCCCN1C[C@@H](NC(C)=O)C[C@H]1CO` [Compound 348, N-((3S,5S)-5-(hydroxymethyl)-1-nonylpyrrolidin-3-yl)acetamide], the Ave % inhibition result is given as “++++ (++++: 60-79%)”.
Still for that read-out and setting: then `CCCCCCCCCN1C[C@H](O)[C@H](O)[C@@H]1[C@@H](O)[C@H](O)CO` [Compound 404, (1R,2R)-1-((2R,3R,4S)-3,4-dihydroxy-1-nonylpyrrolidin-2-yl)propane-1,2,3-triol], with “+++ (+++: 40-59%)”.
Same read-out and setting: then `CCCCCCCCCN1C[C@@H](O)[C@@H](O)[C@@H]1[C@H](O)CO` [Compound 427, (2S,3S,4R)-2-((S)-1,2-dihydroxyethyl)-1-nonylpyrrolidine-3,4-diol], with “+++ (+++: 40-59%)”; and `CC1(C)O[C@H]2[C@H](CN(Cc3ccccc3)[C@@H]2CN)O1` [Compound 483, ((3aR,4R,6aS)-5-benzyl-2,2-dimethyltetrahydro-3aH-[1,3]dioxolo[4,5-c]pyrrol-4-yl)methanamine], with “++ (++: 20-39%)”; and `O=C(O)CCCN1C[C@@H](O)[C@H](O)[C@H]1CO` [Compound 499, 4-[(2R,3R,4R)-3,4-dihydroxy-2-(hydroxymethyl)pyrrolidin-1-yl]butanoic acid], with “++ (++: 20-39%)”.
As for `OC[C@H]1[C@H](O)[C@@H](O)CN1Cc1ccccc1` [Compound 500, (2S,3S,4S)-1-benzyl-2-(hydroxymethyl)pyrrolidine-3,4-diol], the Ave % inhibition entry was “++ (++: 20-39%)”.
The same measure, in the same setting: then `C[C@@]1(C(=O)O)NC[C@H](O)[C@H]1O` [Compound 504, (2R,3S,4S)-3,4-dihydroxy-2-methylpyrrolidine-2-carboxylic acid], with “++ (++: 20-39%)”; and `[N-]=[N+]=NC[C@H]1[C@@H](O)[C@@H](O)CN1Cc1ccccc1` [Compound 506, (2S,3R,4S)-2-(azidomethyl)-1-benzylpyrrolidine-3,4-diol], with “+++ (+++: 40-59%)”; and `CC(=O)NC[C@@H]1[C@@H](O)[C@@H](O)CN1CCCCCCCCCO` [Compound 511, N-(((2R,3R,4S)-3,4-dihydroxy-1-(9-hydroxynonyl)pyrrolidin-2-yl)methyl)acetamide], with “++ (++: 20-39%)”.
In the case of `CCCCCCCCCN1C[C@H](O)[C@H](O)[C@H]1CNC(C)=O` [Compound 512, N-(((2R,3R,4S)-3,4-dihydroxy-1-nonylpyrrolidin-2-yl)methyl)acetamide], the Ave % inhibition entry is recorded as “+++ (+++: 40-59%)”.
Regarding `O=C(O)CN1C[C@H](O)[C@H](O)[C@@H]1[C@@H](O)[C@H](O)[C@H](O)CO` [Compound 530, 2-((2R,3R,4S)-3,4-dihydroxy-2-((1R,2S,3R)-1,2,3,4-tetrahydroxybutyl)pyrrolidin-1-yl)acetic acid], the Ave % inhibition entry is on record as “++ (++: 20-39%)”.
Still for that read-out and setting: the same measure for `OCCCCCCCCCN1[C@H](CO)[C@@H](O)[C@H](O)[C@H]1CO` [Compound 557, (2R,3R,4R,5R)-2,5-bis(hydroxymethyl)-1-(9-hydroxynonyl)pyrrolidine-3,4-diol]: “++ (++: 20-39%)”; for `OC[C@@H]1[C@@H](O)[C@H](O)[C@@H](CO)N1Cc1ccc(-c2ccccc2)cc1` [Compound 558, (2R,3R,4R,5R)-1-(biphenyl-4-ylmethyl)-2,5-bis(hydroxymethyl)pyrrolidine-3,4-diol]: “+++ (+++: 40-59%)”; for `OC[C@@H]1[C@@H](O)[C@H](O)[C@@H](CO)N1Cc1ccc(-c2ccccc2)cc1` [Compound 559, (2R,3R,4R,5R)-1-(biphenyl-4-ylmethyl)-2,5-bis(hydroxymethyl)pyrrolidine-3,4-diol]: “++++ (++++: 60-79%)”.
On the same count and under the same terms, then `C[C@@H](N)CCC[C@@H]1N[C@@H](CO)[C@H](O)[C@H]1O` [Compound 561, (2S,3S,4S,5S)-2-((R)-4-aminopentyl)-5-(hydroxymethyl)pyrrolidine-3,4-diol], with “++++ (++++: 60-79%)”; and `C[C@H](N)CCC[C@@H]1N[C@@H](CO)[C@H](O)[C@H]1O` [Compound 562, (2S,3S,4S,5S)-2-((S)-4-aminopentyl)-5-(hydroxymethyl)pyrrolidine-3,4-diol], with “++++ (++++: 60-79%)”.
The same measure, in the same setting: the same measure for `CC(=O)N[C@@H]1CNC[C@@H](O)[C@H]1O` [Compound 563, N-((3R,4S,5R)-4,5-dihydroxypiperidin-3-yl)acetamide]: “++++ (++++: 60-79%)”; for `CCCCCCCCCN1C[C@H](O)[C@H](O)[C@@H]1CNC(C)=O` [Compound 587, N-(((2S,3R,4S)-3,4-dihydroxy-1-nonylpyrrolidin-2-yl)methyl)acetamide]: “+++ (+++: 40-59%)”; for `CC(=O)NC[C@H]1[C@@H](O)[C@@H](O)CN1CCN1CCCCC1` [Compound 616, N-(((2S,3R,4S)-3,4-dihydroxy-1-(2-(piperidin-1-yl)ethyl)pyrrolidin-2-yl)methyl)acetamide]: “++ (++: 20-39%)”.
